Measured values from patent US8034940B2, “Modulators of glucocorticoid receptor, AP-1, and/or NF-κB activity and use thereof” (Bristol-Myers Squibb Company, priority 2006, dated 2011).

Tested on: AP-1 induced transcriptional activity
Test: Cellular Transrepressional Assay (AP-1 luciferase reporter, PMA-activated A549 cells)
Assay type: cell-based
Conditions: for Emax: A549, 7 h, read-out: AP-1 Max % inh (Cellular Transrepression Assay); for Emax / AP-1 Max % inh (Cellular Transrepression Assay): maximum inhibition
Experimental: Cellular Transrepressional Assay
To measure the ability of test molecules to inhibit AP-1 induced transcriptional activity we utilized an A549 cell which was stably transfected with a plasmid containing 7× AP-1 DNA binding sites (pAP-1-Luc plasmid, Stratagene Co. La Jolla, Calif.) followed by the gene for luciferase. Cells were activated with 10 ng/ml of […] (PMA) plus or minus test molecules for 7 hours. After 7 hours a luciferase reagent was added to measure luciferase enzymatic activity in the cell. After a 10 minute incubation of luciferase reagent with cells, luminescence was measured in a TopCount luminescence counter. Repression of AP-1 activity was calculated as the percentage decrease in the signal induced by PMA alone. Test molecules were analyzed in the concentration range from 0.1 nM to 40 μM. EC50s were determined by using standard curve fitting methods such as Excel fit (Microsoft Co.).

[1] = Homo sapiens, Cellular Transrepression Assay
[2] = Homo sapiens, A549, Cellular Transrepression Assay

Row | SMILES | Emax [1] [%] | EC50 [2] [nM] | EC50 (Cellular Transrepression Assay) [nM] | AP-1 Max % inh (Cellular Transrepression Assay) (Cellular Transrepression Assay) [%]
1 | COc1ccc2c(n1)Oc1ccccc1C2C(C)(C)C(=O)Nc1nc(Cc2ccc(-c3ccncc3)cc2)cs1 (centres unmarked) [Example 79] | 62.3 | 9.42 |  | 
2 | CC(O)c1ccc(-c2ccc3c(n2)Oc2ccccc2C3C(C)(C)C(=O)Nc2nncs2)cc1 (mixture of isomers) [Example 239] |  |  | 12.4 | 44.85
3 | CC(C)N(C)C(=O)c1ccc(-c2ccc3c(n2)Oc2ccccc2C3C(C)(C)C(=O)Nc2nncs2)cc1 (centres unmarked) [Example 258] |  |  | 534 | 40.99
4 | COc1ccc(Cc2csc(NC(=O)C(C)(C)[C@H]3c4ccccc4Oc4cc(OC)ccc43)n2)cc1 [Example 57] | 74.8 | 11.5 |  | 
5 | CC(C)(C(=O)Nc1nncs1)[C@H]1c2ccccc2Oc2nc(-c3cn[nH]c3)ccc21 [Example 450] | 26.3 | 59.2 |  | 
6 | CC(C)(C(=O)Nc1nncs1)C1c2ccccc2Oc2nc(N)ccc21 (centres unmarked) [Example 159] | 30.3 | 479 |  | 
7 | CC(C)(C(=O)Nc1nncs1)[C@H]1c2ccccc2Oc2nc(-c3ccc(C(=O)N4CCCCC4)c(Cl)c3)ccc21 [Example 264] |  |  | 115 | 33.74
8 | CN(C)C(=O)c1ccc(-c2ccc3c(n2)Oc2ccccc2C3C2(C(=O)Nc3ncns3)CCCC2)cc1 (centres unmarked) [Example 485] | 38.9 | 42.4 |  | 
9 | CC(C)(C(=O)Nc1nncs1)[C@H]1c2ccccc2Oc2nc(-c3ccc(C(=O)N4CCC[C@@H]4C(N)=O)cc3)ccc21 [Example 312] | 73.1 | 267 |  | 
10 | CC(C)(C(=O)Nc1nncs1)C1c2ccccc2Oc2cc(OC(=O)NCc3ccc(F)cc3)ccc21 (centres unmarked) [Example 377] |  |  | 32.7 | 49.10
11 | Cc1nnc(NC(=O)C(C)(C)[C@H]2c3ccccc3Oc3nc(-c4ccc(C(=O)N(C)C)cc4)ccc32)s1 [Example 445] | 45.7 | 38.5 |  | 
12 | CC(C)Oc1ccc(-c2ccc3c(n2)Oc2ccccc2[C@@H]3C(C)(C)C(=O)Nc2ncns2)cc1 [Example 458] | 35.2 | 53.2 |  | 
13 | COc1ccc(NC(=O)c2cccc(-c3csc(NC(=O)C(C)(C)C4c5ccccc5Oc5ccccc54)n3)c2)cc1Cl [Example 29] | 66.4 | 139 |  | 
14 | Cc1ccc(-c2csc(NC(=O)CC3c4ccccc4Sc4ccccc43)n2)c2ccccc12 [Example 27] | 15 |  |  | 
15 | O=C(c1ccc(-c2ccc3c(n2)Oc2ccccc2C3C2(C(=O)Nc3nncs3)CCC2)cc1)N1CCOCC1 (centres unmarked) [Example 486] | 50.3 | 15.8 |  | 
16 | CCN(C)C(=O)c1ccc(-c2ccc3c(n2)Oc2ccccc2[C@@H]3C(C)(C)C(=O)Nc2ncns2)cc1F [Example 454] | 49.5 | 25.3 |  | 
17 | CC(C)(C(=O)Nc1nc(-c2ccc(F)c3ccccc23)cs1)C1c2ccccc2Oc2ccccc21 [Example 32] | 67.6 | 302 |  | 
18 | COc1cccc2c1Oc1ccccc1C2C(C)(C)C(=O)Nc1nc(Cc2ccc(-c3ccncc3)cc2)cs1 (centres unmarked) [Example 83] | 69.6 | 15 |  | 
19 | CC(C)(C(=O)Nc1nc(-c2ccc(F)c3ccccc23)cs1)C1c2ccccc2Oc2ccc(C(F)(F)F)cc21 (centres unmarked) [Example 40] | 47.8 | 461 |  | 
20 | CCOc1ccc(-c2ccc3c(n2)Oc2ccccc2C3C(C)(C)C(=O)Nc2nncs2)cc1 (centres unmarked) [Example 204] |  |  | 42.8 | 44.75
21 | COc1ccc(CNc2ccc3c(n2)Oc2ccccc2[C@@H]3C(C)(C)C(=O)Nc2nncs2)cc1 [Example 140] | 64.1 | 93.7 |  | 
22 | Cc1nnc(NC(=O)C(C)(C)[C@H]2c3ccccc3Oc3nc(-c4ccc(C(=O)N5CCCC5)cc4)ccc32)s1 [Example 460] | 56.9 | 30.3 |  | 
23 | CC(=O)N1CCN(C(=O)c2ccc(-c3ccc4c(n3)Oc3ccccc3[C@@H]4C(C)(C)C(=O)Nc3nncs3)cc2F)CC1 [Example 324] | 54.9 | 431 |  | 
24 | CC(C)(C(=O)Nc1ncc(S(C)(=O)=O)s1)[C@H]1c2ccccc2Oc2nc(-c3ccc(C(=O)N4CCCC4)c(F)c3)ccc21 [Example 426] | 31.8 | 117 |  | 
25 | CC(C)(C(=O)Nc1ncns1)[C@H]1c2ccccc2Oc2nc(-c3ccc(C(=O)N4CCOCC4)c(F)c3)ccc21 [Example 468] | 53.3 | 35.4 |  | 
26 | CC(C)(C(=O)NC#N)[C@H]1c2ccccc2Oc2nc(-c3ccc(C(=O)N4CCCC4)c(F)c3)ccc21 [Example 398] | 50 | 480 |  | 
27 | CC(C)(C(=O)Nc1nnc(N)s1)[C@H]1c2ccccc2Oc2nc(-c3ccc(C(=O)N4CCCC4)c(F)c3)ccc21 [Example 428] | 26.9 | 30.3 |  | 

Row | SMILES | Emax [1] [%] | EC50 [2] [nM] | EC50 (Cellular Transrepression Assay) [nM] | AP-1 Max % inh (Cellular Transrepression Assay) (Cellular Transrepression Assay) [%]
28 | Cc1csc(NC(=O)C(C)(C)[C@H]2c3ccccc3Oc3nc(-c4ccc(C(=O)N(C)C)cc4)ccc32)n1 [Example 443] | 51.7 | 134 |  | 
29 | CCCN(C)C(=O)c1ccc(-c2ccc3c(n2)Oc2ccccc2[C@@H]3C(C)(C)C(=O)Nc2nncs2)cc1F [Example 343] |  |  | 18.4 | 29.68
30 | Cn1cc(-c2ccc(Cc3csc(NC(=O)C(C)(C)C4c5ccccc5Oc5ccccc54)n3)cc2)cn1 [Example 42] | 73.4 | 3.7 |  | 
31 | CC(C)(C(=O)Nc1nncs1)C1c2ccccc2Oc2nc(-c3ccc(O)cc3)ccc21 (centres unmarked) [Example 191] |  |  | 22.6 | 37.51
32 | Cc1nsc(NC(=O)C(C)(C)[C@H]2c3ccccc3Oc3nc(-c4ccc(C(=O)N5CCOCC5)cc4)ccc32)n1 [Example 478] | 41.8 | 16 |  | 
33 | Cc1nnc(NC(=O)C2(C3c4ccccc4Oc4nc(-c5ccc(C(=O)N(C)C)cc5)ccc43)CCC2)s1 (centres unmarked) [Example 488] | 34.5 | 42.9 |  | 
34 | Cc1ccc(-c2csc(NC(=O)C(C)(C)C3c4ccccc4Sc4ccccc43)n2)c2ccccc12 [Example 7] | 64.9 | 303 |  | 
35 | CC(C)(C(=O)Nc1nncs1)[C@H]1c2ccccc2Oc2nc(-c3ccc(C(=O)N4CCC[C@@H]4CO)cc3)ccc21 [Example 331] | 36.3 | 33.7 |  | 
36 | CN(C)C(=O)c1ccc(-c2ccc3c(n2)Oc2ccccc2[C@@H]3C(C)(C)C(=O)Nc2nnc(C3CC3)s2)cc1 [Example 448] | 56.6 | 178 |  | 
37 | CC(C)(C(=O)Nc1nnc(C#N)s1)[C@H]1c2ccccc2Oc2nc(-c3ccc(C(=O)N4CCCC4)c(F)c3)ccc21 [Example 435] | 27.9 | 292 |  | 
38 | CN(C)C(=O)c1ccc(-c2ccc3c(n2)Oc2ccccc2[C@H]3C2(C(=O)Nc3nncs3)CCC2)cc1 (single isomer, unassigned) [Example 481] | 33.8 | 579 |  | 
39 | CC(=O)c1ccc(-c2ccc3c(n2)Oc2ccccc2C3C(C)(C)C(=O)Nc2nncs2)cc1F (centres unmarked) [Example 229] |  |  | 42 | 39.34
40 | CC(C)(C(=O)Nc1nncs1)C1c2ccccc2Oc2cc(OC(=O)NCc3ccccc3)ccc21 (centres unmarked) [Example 389] |  |  | 50.5 | 55.20
41 | CC(C)(C(=O)Nc1nncs1)[C@H]1c2ccccc2Oc2nc(-c3ccc(C(=O)N4CCCC4)c(F)c3)ccc21 [Example 333] |  |  | 24.7 | 52.71
42 | CC(C)(C(=O)Nc1nnc(C(N)=O)s1)[C@H]1c2ccccc2Oc2nc(-c3ccc(C(=O)N4CCCC4)c(F)c3)ccc21 [Example 418] | 29.1 | 82.1 |  | 
43 | CC(C)(C(=O)Nc1nncs1)[C@H]1c2ccccc2Oc2nc(-c3ccc(C(=O)N4CCOCC4)c(Cl)c3)ccc21 [Example 328] |  |  | 18.6 | 66.06
44 | Cc1ccc(-c2csc(NC(=O)C(C)(C)C3c4ccccc4S(=O)(=O)c4ccccc43)n2)c2ccccc12 [Example 13] | 60.3 | 566 |  | 
45 | O=C(CC1c2ccccc2Oc2ccccc21)Nc1nc(-c2ccc(F)c3ccccc23)cs1 [Example 2] | 42.7 |  |  | 
46 | Cc1ccc(-c2ccc3c(n2)Oc2ccccc2C3C(C)(C)C(=O)Nc2nncs2)cc1 (centres unmarked) [Example 170] |  |  | 182 | 44.12
47 | CC(C)(C(=O)Nc1nncs1)[C@H]1c2ccccc2Oc2cc(OC(=O)NCc3ccccc3)ccc21 [Example 369, (s)-9-(1-(1,3,4-thiadiazole-2ylamino)-2-methyl-1-oxopropan-2-yl)-9H-xanthen-3-yl benzylcarbamate] | 55.5 | 33 |  | 
48 | Cc1nnc(NC(=O)C(C)(C)[C@H]2c3ccccc3Oc3nc(-c4ccc(C(=O)N5CCOCC5)cc4)ccc32)s1 [Example 465] | 61.5 | 16.6 |  | 
49 | CNC(=O)c1nnc(NC(=O)C(C)(C)[C@H]2c3ccccc3Oc3nc(-c4ccc(C(=O)N5CCCC5)c(F)c4)ccc32)s1 [Example 419] | 46.6 | 71.9 |  | 
50 | CSc1cnc(NC(=O)C(C)(C)[C@H]2c3ccccc3Oc3nc(-c4ccc(C(=O)N5CCCC5)c(F)c4)ccc32)s1 [Example 424] | 59.6 | 150 |  | 
51 | Cc1cnc(NC(=O)C(C)(C)[C@H]2c3ccccc3Oc3cc(O)ccc32)s1 [Example 87] | 46 | 91.1 |  | 
52 | CC(C)Oc1cnc(-c2ccc3c(c2)Oc2ccccc2[C@@H]3C(C)(C)C(=O)Nc2nncs2)nc1 [Example 107] | 22.8 | 833 |  | 
53 | Cc1nnc(NC(=O)C(C)(C)[C@H]2c3ccccc3Oc3nc(-c4ccc(C(=O)N5CCOCC5)c(F)c4)ccc32)s1 [Example 472] | 47 | 26.9 |  | 
